# Test results: patent publication US12503438B2, “Compounds for the treatment of kinase-dependent disorders” (Exelixis, Inc., priority 2019, dated 2025)
# Assays:
# AXL = target: T1, AXL (Homo sapiens, UniProt P30530); assay: AXL autophosphorylation ELISA in A-172 cells; format: cell-based; conditions: cellular activity, Gas6-stimulated, phospho-AXL ELISA
# T1 construct: endogenous in cells; host or cells: A-172 glioblastoma cells (ATCC #CRL-1620)
# T1 sequence (P30530 26-894): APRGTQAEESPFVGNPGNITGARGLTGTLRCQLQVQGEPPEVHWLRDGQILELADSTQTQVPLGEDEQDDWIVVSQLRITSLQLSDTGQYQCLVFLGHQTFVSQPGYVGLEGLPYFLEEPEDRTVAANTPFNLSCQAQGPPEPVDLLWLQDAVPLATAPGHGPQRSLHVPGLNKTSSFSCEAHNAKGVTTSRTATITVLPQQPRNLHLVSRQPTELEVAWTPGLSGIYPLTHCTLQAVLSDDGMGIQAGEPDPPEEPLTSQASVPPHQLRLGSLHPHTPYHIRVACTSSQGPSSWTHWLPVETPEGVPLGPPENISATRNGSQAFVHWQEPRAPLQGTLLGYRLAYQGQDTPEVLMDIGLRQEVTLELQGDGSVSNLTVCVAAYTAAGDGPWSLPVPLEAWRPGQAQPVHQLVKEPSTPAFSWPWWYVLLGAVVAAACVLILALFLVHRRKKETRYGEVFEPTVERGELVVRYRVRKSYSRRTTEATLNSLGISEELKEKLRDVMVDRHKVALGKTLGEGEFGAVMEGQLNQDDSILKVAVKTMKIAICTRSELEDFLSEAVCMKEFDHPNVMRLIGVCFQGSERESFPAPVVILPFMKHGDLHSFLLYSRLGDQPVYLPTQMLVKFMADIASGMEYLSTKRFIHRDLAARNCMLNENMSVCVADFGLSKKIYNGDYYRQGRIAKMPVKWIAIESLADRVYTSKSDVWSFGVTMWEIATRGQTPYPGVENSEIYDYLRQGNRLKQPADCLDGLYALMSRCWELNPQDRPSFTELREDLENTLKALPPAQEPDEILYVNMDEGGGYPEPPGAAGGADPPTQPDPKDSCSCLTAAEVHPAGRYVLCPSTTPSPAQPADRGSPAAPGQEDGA
# Method: A-172 glioblastoma cells (ATCC #CRL-1620) were seeded at 2.5×10^5 cells/well onto 24-well plates (Greiner #662165), in DMEM (Thermo Fisher #11995-040) containing 10% FBS (Thermo Fisher #26140-079), 1% MEM NEAA (Thermo Fisher #11140-050), 1% GlutaMax (Thermo Fisher #35050-061) and 1% Penicillin Streptomycin (Thermo Fisher #15140-122). A-172 cells were incubated at 37° C., 5% CO2 for 24 h and then starved for 24 h in serum-free medium. Test compounds were serially diluted to produce an 8-point dose curve in fresh serum-free medium to a final concentration of 0.3% DMSO (vehicle) and added to the cells and incubated for 1 h. Cells were then stimulated with 1 μg/mL recombinant human Gas6 (R&D Systems #885-GSB-500) for 15 min, washed with cold PBS and immediately lysed with 150 μL of cold 1× lysis buffer [20 mM Tris, 137 mM sodium chloride, 2 mM EDTA, 10% glycerol, 1% NP-40 alternative, 1 mM activated sodium orthovanadate, 1 mM PefaBloc SC (Sigma-Aldrich #11429868001), protease/phosphatase inhibitor tablet (Thermo Fisher #A32959)]. Lysates were collected and 100 μL/well added into the human phospho-AXL DuoSet IC ELISA (R&D Systems #DYC2228-2). Assay was performed according to manufacturer's instructions and sample phospho-AXL concentrations were extrapolated using human phospho-AXL control (R&D Systems #841645) as a standard. Positive control wells (100% activity) contained Gas6-stimulated, DMSO-treated cell lysates. Negative control wells (0% activity) contained Gas6-stimulated, reference inhibitor-treated cell lysates. IC50 values were calculated by nonlinear regression analysis using a 4-parameter logistic curve fit in ActivityBase XE (IDBS).
# KDR = KDR (Homo sapiens, UniProt P35968); assay: KDR autophosphorylation ELISA in HUVEC cells; format: cell-based; design: endogenous in cells; host or cells: HUVEC (Lonza #C2519A); conditions: cellular activity, VEGF165-stimulated, phospho-KDR ELISA
# Method: Human umbilical vein endothelial cells or HUVEC (Lonza #C2519A) were seeded at 2×10^4 cells/well onto 96-well plates (Corning #3904), in EGM-2 growth medium (Lonza #CC-3162) containing 1% Penicillin Streptomycin (Thermo Fisher #15140-122). HUVEC cells were incubated at 37° C., 5% CO2 for 24 h and then starved for 24 h in serum-free EBM-2 basal medium (Lonza #CC-3156) containing 1% Penicillin Streptomycin. Test compounds were serially diluted to produce an 8-point dose curve in fresh serum-free medium to a final concentration of 0.3% DMSO (vehicle) and added to the cells and incubated for 1 h. Cells were then stimulated with 100 ng/mL recombinant human VEGF165 (R&D Systems #293-VE-500) for 5 min, washed with cold PBS, and immediately lysed with 130 μL of cold 1× lysis buffer [20 mM Tris, 137 mM sodium chloride, 2 mM EDTA, 10% glycerol, 1% NP-40 alternative, 1 mM activated sodium orthovanadate, 1 mM PefaBloc SC (Sigma-Aldrich #11429868001), protease/phosphatase inhibitor tablet (Thermo Fisher #A32959)]. Lysates were collected and 100 μL/well added into the human phospho-KDR DuoSet IC ELISA (R&D Systems #DYC1766-2). Assay was performed according to manufacturer's instructions and sample phospho-KDR concentrations were extrapolated using human phospho-KDR control (R&D Systems #841421) as a standard. Positive control wells (100% activity) contained VEGF165-stimulated, DMSO-treated cell lysates. Negative control wells (0% activity) contained non-stimulated cell lysates. IC50 values were calculated by nonlinear regression analysis using a 4-parameter logistic curve fit in ActivityBase XE (IDBS).
# Chain of KDR (P35968 20-1356): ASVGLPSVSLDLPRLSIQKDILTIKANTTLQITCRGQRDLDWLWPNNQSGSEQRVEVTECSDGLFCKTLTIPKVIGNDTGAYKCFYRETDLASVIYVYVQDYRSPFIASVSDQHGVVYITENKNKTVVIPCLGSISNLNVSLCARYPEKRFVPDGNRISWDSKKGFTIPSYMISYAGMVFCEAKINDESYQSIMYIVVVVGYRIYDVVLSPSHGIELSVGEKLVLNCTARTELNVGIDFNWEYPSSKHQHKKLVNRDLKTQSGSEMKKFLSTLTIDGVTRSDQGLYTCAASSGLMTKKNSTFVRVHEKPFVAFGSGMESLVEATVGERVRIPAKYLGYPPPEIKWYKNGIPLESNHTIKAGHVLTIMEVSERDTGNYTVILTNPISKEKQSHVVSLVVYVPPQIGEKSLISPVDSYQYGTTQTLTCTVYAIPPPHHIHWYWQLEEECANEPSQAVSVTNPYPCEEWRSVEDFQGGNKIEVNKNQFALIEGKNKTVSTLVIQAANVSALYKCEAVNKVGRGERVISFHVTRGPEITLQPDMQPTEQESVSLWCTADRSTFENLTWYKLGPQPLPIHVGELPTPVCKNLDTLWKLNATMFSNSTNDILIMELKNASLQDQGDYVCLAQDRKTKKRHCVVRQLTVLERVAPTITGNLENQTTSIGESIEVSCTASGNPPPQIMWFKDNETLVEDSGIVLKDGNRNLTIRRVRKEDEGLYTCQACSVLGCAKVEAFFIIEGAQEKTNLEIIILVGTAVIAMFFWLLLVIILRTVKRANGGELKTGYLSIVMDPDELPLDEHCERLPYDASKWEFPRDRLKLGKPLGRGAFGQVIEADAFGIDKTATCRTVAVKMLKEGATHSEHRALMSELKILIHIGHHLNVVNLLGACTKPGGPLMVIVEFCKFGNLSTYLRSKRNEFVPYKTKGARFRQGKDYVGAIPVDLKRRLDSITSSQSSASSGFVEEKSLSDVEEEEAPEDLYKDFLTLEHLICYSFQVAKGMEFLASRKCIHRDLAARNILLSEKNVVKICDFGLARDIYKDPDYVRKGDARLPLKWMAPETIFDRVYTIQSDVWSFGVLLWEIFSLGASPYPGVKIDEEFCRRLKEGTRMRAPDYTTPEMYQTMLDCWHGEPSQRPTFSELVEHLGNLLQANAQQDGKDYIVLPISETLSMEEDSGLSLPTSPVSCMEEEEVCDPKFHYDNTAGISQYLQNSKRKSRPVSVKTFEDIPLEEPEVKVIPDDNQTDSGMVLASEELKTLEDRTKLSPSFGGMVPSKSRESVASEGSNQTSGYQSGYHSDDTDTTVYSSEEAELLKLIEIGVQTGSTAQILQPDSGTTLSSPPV
Compound,IC50 (AXL) [nM],IC50 (KDR) [nM]
"O=C(Nc1ccc(F)cc1)C1(C(=O)Nc2ccc(Oc3ccnc4cc(-c5cccnc5)ccc34)cc2)CC1 [Compound 25, 1-N′-(4-Fluorophenyl)-1-N-[4-(7-pyridin-3-ylquinolin-4-yl)oxyphenyl]cyclopropane-1,1-dicarboxamide]",10 to 100,≤ 10
"O=C(Nc1ccc(F)cc1)C1(C(=O)Nc2ccc(Oc3ccnc4cc(-c5ccncc5)ccc34)cc2)CC1 [Compound 26, 1-N′-(4-Fluorophenyl)-1-N-[4-(7-pyridin-4-ylquinolin-4-yl)oxyphenyl]cyclopropane-1,1-dicarboxamide]",≤ 10,≤ 10
"O=C(Nc1ccc(F)cc1)C1(C(=O)Nc2ccc(Oc3ccnc4cc(-c5cncnc5)ccc34)cc2)CC1 [Compound 27, 1-N′-(4-Fluorophenyl)-1-N-[4-(7-pyrimidin-5-ylquinolin-4-yl)oxyphenyl]cyclopropane-1,1-dicarboxamide]",10 to 100,10 to 100
"O=C(Nc1ccc(F)cc1)C1(C(=O)Nc2ccc(Oc3ccnc4cc(-c5ccnnc5)ccc34)cc2)CC1 [Compound 28, 1-N′-(4-Fluorophenyl)-1-N-[4-(7-pyridazin-4-ylquinolin-4-yl)oxyphenyl]cyclopropane-1,1-dicarboxamide]",≤ 10,10 to 100
"O=C(Nc1ccc(F)cc1)C1(C(=O)Nc2ccc(Oc3ccnc4cc(-c5cnn6c5CCC6)ccc34)cc2)CC1 [Compound 29, 1-N-[4-[7-(5,6-Dihydro-4H-pyrrolo[1,2-b]pyrazol-3-yl)quinolin-4-yl]oxyphenyl]-1-N′-(4-fluorophenyl)cyclopropane-1,1-dicarboxamide]",10 to 100,10 to 100
"Cc1cc(-c2ccc3c(Oc4ccc(NC(=O)C5(C(=O)Nc6ccc(F)cc6)CC5)cc4)ccnc3c2)ccn1 [Compound 30, 1-N′-(4-Fluorophenyl)-1-N-[4-[7-(2-methylpyridin-4-yl)quinolin-4-yl]oxyphenyl]cyclopropane-1,1-dicarboxamide]",10 to 100,10 to 100
"COc1cc(-c2ccc3c(Oc4ccc(NC(=O)C5(C(=O)Nc6ccc(F)cc6)CC5)cc4)ccnc3c2)ccn1 [Compound 31, 1-N′-(4-Fluorophenyl)-1-N-[4-[7-(2-methoxypyridin-4-yl)quinolin-4-yl]oxyphenyl]cyclopropane-1,1-dicarboxamide]",10 to 100,10 to 100
"O=C(Nc1ccc(F)cc1)C1(C(=O)Nc2ccc(Oc3ccnc4cc(-c5ccnc(F)c5)ccc34)cc2)CC1 [Compound 33, 1-N′-(4-Fluorophenyl)-1-N-[4-[7-(2-fluoropyridin-4-yl)quinolin-4-yl]oxyphenyl]cyclopropane-1,1-dicarboxamide]",10 to 100,10 to 100
"N#Cc1cc(-c2ccc3c(Oc4ccc(NC(=O)C5(C(=O)Nc6ccc(F)cc6)CC5)cc4)ccnc3c2)ccn1 [Compound 34, 1-N-[4-[7-(2-Cyanopyridin-4-yl)quinolin-4-yl]oxyphenyl]-1-N′-(4-fluorophenyl)cyclopropane-1,1-dicarboxamide]",10 to 100,10 to 100
"Nc1ccc(-c2ccc3c(Oc4ccc(NC(=O)C5(C(=O)Nc6ccc(F)cc6)CC5)cc4)ccnc3c2)cn1 [Compound 38, 1-N-[4-[7-(6-Aminopyridin-3-yl)quinolin-4-yl]oxyphenyl]-1-N′-(4-fluorophenyl)cyclopropane-1,1-dicarboxamide]",10 to 100,10 to 100
"O=C(Nc1ccc(F)cc1)C1(C(=O)Nc2ccc(Oc3ccnc4cc(-c5cnc6[nH]ncc6c5)ccc34)cc2)CC1 [Compound 39, 1-N′-(4-Fluorophenyl)-1-N-[4-[7-(1H-pyrazolo[3,4-b]pyridin-5-yl)quinolin-4-yl]oxyphenyl]cyclopropane-1,1-dicarboxamide]",10 to 100,10 to 100
"N#Cc1cncc(-c2ccc3c(Oc4ccc(NC(=O)C5(C(=O)Nc6ccc(F)cc6)CC5)cc4)ccnc3c2)c1 [Compound 40, 1-N-[4-[7-(5-Cyanopyridin-3-yl)quinolin-4-yl]oxyphenyl]-1-N′-(4-fluorophenyl)cyclopropane-1,1-dicarboxamide]",10 to 100,10 to 100
